Assay results reported in ChEMBL document CHEMBL6087474, “Discovery of an Efficacious RET PROTAC Degrader with Enhanced Antiproliferative Activity against Resistant Cancer Cells Harboring RET Solvent-Front Mutations” (J Med Chem, 2025).
pIC50: −log10 of the molar value.

Legend:
[1] = Effect on RET protein level in mouse BaF3 cells stably expressing KIF5B-RET-V804M mutant assessed as fold change at 11.1 nM measured after 6 hrs by Western blot analysis (reference value: 1); type: functional
[2] = Effect on Shc protein level in mouse BaF3 cells stably expressing wildtype KIF5B-RET assessed as fold change at 300 nM measured after 6 hrs by Western blot analysis; type: functional
[3] = Induction of apoptosis in mouse BaF3 cells stably expressing KIF5B-RET-G810C mutant assessed as viable cells at 900 nM measured after 48 hrs by Annexin V-FITC/7-AAD staining based flow cytometric analysis (reference value: 86.58 %); type: functional; settings: read-out: Activity
BaF3 [4] = test: Antiproliferative activity against mouse BaF3 cells stably expressing KIF5B-RET fusion protein incubated for 72 hrs by CCK-8 assay; type: functional, cell-based; settings: BaF3, 72 h
[5] = Induction of apoptosis in mouse BaF3 cells stably expressing wildtype KIF5B-RET fusion protein assessed as viable cells at 33.3 nM measured after 48 hrs by Annexin V-FITC/7-AAD staining based flow cytometric analysis (reference value: 86.65 %); type: functional; settings: read-out: Activity
[6] = target: Proto-oncogene tyrosine-protein kinase receptor Ret (Homo sapiens, UniProt P07949); test: Inhibition of wildtype RET (unknown origin) in presence of ATP by FRET-based Z'-Lyte assay
Sequence of Proto-oncogene tyrosine-protein kinase receptor Ret (P07949 whole entry): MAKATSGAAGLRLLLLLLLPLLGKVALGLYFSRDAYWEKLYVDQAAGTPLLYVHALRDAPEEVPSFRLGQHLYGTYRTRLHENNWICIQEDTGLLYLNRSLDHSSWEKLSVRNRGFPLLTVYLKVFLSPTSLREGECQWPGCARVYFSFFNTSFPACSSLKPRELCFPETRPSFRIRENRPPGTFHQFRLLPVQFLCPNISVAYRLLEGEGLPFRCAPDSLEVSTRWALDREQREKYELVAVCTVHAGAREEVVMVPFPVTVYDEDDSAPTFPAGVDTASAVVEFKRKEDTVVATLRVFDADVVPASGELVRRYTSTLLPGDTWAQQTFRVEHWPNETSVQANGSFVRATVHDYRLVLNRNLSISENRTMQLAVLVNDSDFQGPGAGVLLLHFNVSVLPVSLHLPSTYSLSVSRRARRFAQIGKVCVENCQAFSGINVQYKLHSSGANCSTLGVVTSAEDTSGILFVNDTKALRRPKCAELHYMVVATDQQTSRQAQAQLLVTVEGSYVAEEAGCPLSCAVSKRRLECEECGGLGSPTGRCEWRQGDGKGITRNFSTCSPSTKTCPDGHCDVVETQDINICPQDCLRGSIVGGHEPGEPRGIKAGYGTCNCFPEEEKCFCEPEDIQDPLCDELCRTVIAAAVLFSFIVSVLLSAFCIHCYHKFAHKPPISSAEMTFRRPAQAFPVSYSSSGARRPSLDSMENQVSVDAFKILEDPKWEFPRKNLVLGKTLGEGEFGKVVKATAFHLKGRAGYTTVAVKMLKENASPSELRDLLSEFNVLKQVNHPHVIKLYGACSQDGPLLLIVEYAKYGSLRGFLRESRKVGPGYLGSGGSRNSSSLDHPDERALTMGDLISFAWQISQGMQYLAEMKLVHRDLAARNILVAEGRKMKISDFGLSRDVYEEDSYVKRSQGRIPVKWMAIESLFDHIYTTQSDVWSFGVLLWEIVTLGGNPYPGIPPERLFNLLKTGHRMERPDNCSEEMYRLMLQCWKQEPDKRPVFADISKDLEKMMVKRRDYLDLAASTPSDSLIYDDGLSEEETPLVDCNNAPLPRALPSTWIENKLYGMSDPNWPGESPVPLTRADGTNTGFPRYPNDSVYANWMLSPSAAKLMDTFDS

[7] = Effect on RET protein level in mouse BaF3 cells stably expressing KIF5B-RET-G810C mutant assessed as fold change at 300 nM measured after 6 hrs by Western blot analysis (reference value: 1); type: functional
BaF3 [8] = test: Antiproliferative activity against mouse BaF3 cells stably expressing KIF5B-RET-G810R mutant incubated for 72 hrs by CCK-8 assay; type: functional, cell-based; settings: BaF3, 72 h
[9] = Effect on Shc protein level in mouse BaF3 cells stably expressing KIF5B-RET-G810R mutant assessed as fold change at 300 nM measured after 6 hrs by Western blot analysis (reference value: 1); type: functional
[10] = Induction of apoptosis in mouse BaF3 cells stably expressing KIF5B-RET-G810C mutant assessed as early apoptotic cells at 33.3 nM measured after 48 hrs by Annexin V-FITC/7-AAD staining based flow cytometric analysis (reference value: 8.57 %); type: functional
[11] = Induction of apoptosis in mouse BaF3 cells stably expressing wildtype KIF5B-RET fusion protein assessed as early apoptotic cells at 100 nM measured after 48 hrs by Annexin V-FITC/7-AAD staining based flow cytometric analysis (reference value: 9.92 %); type: functional
[12] = Induction of apoptosis in mouse BaF3 cells stably expressing wildtype KIF5B-RET fusion protein assessed as early apoptotic cells at 33.3 nM measured after 48 hrs by Annexin V-FITC/7-AAD staining based flow cytometric analysis (reference value: 9.92 %); type: functional
[13] = Induction of apoptosis in mouse BaF3 cells stably expressing wildtype KIF5B-RET fusion protein assessed as late apoptotic cells at 100 nM measured after 48 hrs by Annexin V-FITC/7-AAD staining based flow cytometric analysis (reference value: 1.03 %); type: functional
[14] = Effect on RET protein level in mouse BaF3 cells stably expressing KIF5B-RET-G810R mutant assessed as fold change at 300 nM measured after 6 hrs by Western blot analysis (reference value: 1); type: functional
[15] = test system: Kinesin-1 heavy chain/ Tyrosine-protein kinase receptor RET (Homo sapiens), P07949+P33176 [G810C]; test: In vivo PROTAC activity at CRBN/KIF5B-RET-G810C mutant in male BALB/c mouse model implanted with mouse BaF3 cells stably expressing KIF5B-RET-G810C mutant assessed as induction of RET degradation in tumor at 30 mg/kg, ip measured after 3 days by Western blotting analysis relative to control; type: functional, organism-based; settings: time 3.0 day

For `COc1ccc(CN2C3CC2CN(c2ccc(-c4cc(-c5cnn(C6CCN(CCCCCC#Cc7cccc8c7CN(C7CCC(=O)NC7=O)C8=O)CC6)c5)cn5ncc(C#N)c45)cn2)C3)cn1` (stereo not given), the “fold change (FC)” value [1] was 0.7, the “fold change (FC)” value [2] was 1 and the viability at 0.9 µM [3] was 41%. The pIC50 (BaF3 [4]) was 8.00, the viability at 0.0333 µM [5] was 74.2% and the pIC50 [6] was 8.24. The “fold change (FC)” value [7] was 0.3, the pIC50 (BaF3 [8]) was 6.82 and the “fold change (FC)” value [9] was 0.9. For the same compound, the Activity [10] was 10.15%, the Activity [11] was 33.58% and the Activity [12] was 20.96%. The Activity [13] was 0.99%, the “fold change (FC)” value [14] was 0.6 and the Activity [15] was 55.3%.
